Reference: patent US4874773A, “3-Aminocarbonyl-1,4-dihydropyridine-5-carboxylic acid compounds, and pharmaceutical composition containing the same” (priority 1985, dated 1989)
Read-outs that look alike come from different tables or passages of the source.

What was measured:
[1] = system: Spontaneously hypertensive male rats; assay: Experiment 1-1 Hypotensive activity (oral, conscious spontaneously hypertensive rats); assay type: in vivo, rat; conditions: 10 mg/kg oral; for Maximum hypotension: mean blood pressure
[2] = system: Spontaneously hypertensive male rats; assay: Experiment 1-2 Hypotensive activity (oral, 8 hours); assay type: in vivo, rat; conditions: for hypotensive activity (in words): Table 5, comparison with nifedipine and nicardipine hydrochloride where stated
Description: Spontaneously hypertensive male rats (13-15 week age, one group: 3 rats) were used. […] The rats were fixed in a Howlman cage without fasting, and the femoral arterial pressure was measured by a direct method without anesthesia with a cannula which was previously inserted into the femoral artery of the animal, via a pressure transducer (MPU-0.5, manufactured by Nippon Koden K.K.). The test compounds were orally administered in the form of a suspension in 0.5% methyl cellulose solution in a dose of 10 mg/kg (in some compounds, 3 mg/kg). In the control group, only 0.5% methyl cellulose solution was administered likewise. The blood pressure was measured for 5 hours after the administration of test compounds.
The hypotensive activity was measured in the same manner as described in Experiment 1-1 except that the rats were used in 3-5 rats per each group, and the test compounds were administered in a dose of 1 mg/kg (some compounds, 3 mg/kg), and the blood pressure was measured for 8 hours after the administration of test compounds.

isolated aorta = assay: Experiment 3 Relaxing activity on the isolated aorta (30 mM KCl contracted); parameters: species or system Japanese white rabbit; conditions: Oryctolagus cuniculus, read-out: EC50 (concentration for 50% relaxation)
Description: Japanese white rabbit (weighing 2.3-2.7 kg) was sacrificed by bleeding from common carotid artery. Immediately, the aorta was isolated and cut into a sprial strip. The strip preparation was vertically suspended under a resting tension of 2.0 g in a tissue bath containing 20 ml of modified Ringer solution while bubbling with a mixture of 95% O2 +5% CO2 by connecting one end of the strip to a lever of the above-mentioned FD pick up. The aortic strip was contracted with 30 mM KCl. When the contraction became constant, the test compound was accumulatively administered, and the relaxing effect was measured. After the final treatment, 10^-4T M papaverine was administered and the maximum relaxation obtained thereby was taken as 100%. In comparison with the maximum relaxation obtained by papaverine, the rate of relaxation by the test compounds was evaluated, and the concentration of the test compounds for obtaining 50% relaxation (EC50) was calculated.
The test compound was dissolved in ethanol, and the solution was diluted in 100 to 1×10^4 folds with a nutrient solution, and the diluted solution was administered.

isolated heart [3] = assay: Experiment 2-1 Activity on isolated heart; parameters: species or system Japanese white rabbit; conditions: Oryctolagus cuniculus, 3 μg/heart; for activation at 3 µg/heart: read-out: Increase of coronary perfusion; for inhibition at 3 µg/heart, 3 µg/heart: read-out: Inhibitory rate of systole; for inhibition at 3 µg/heart: read-out: Reducing rate of heart pulse
Description: Japanese white rabbit (weighing 2.2-2.5 kg) was anesthetized by introvenous injection of nembutal (20 mg/kg) and then sacrificed by bleeding from common carotid artery. […] After stabilizing the heart preparation for 90 minutes, the test compound was administered. There were measured the perfusion volume with a drop-counting meter (ET-600G type, manufactured by Nippon Koden K.K.) and the heart pulse and the contractility via a force-displacement transducer (FD pick up, SB-IT type, manufactured by Nippon Koden K.K.) (for measuring heart pulse, an instant pulse meter (AT-601G type, minufactured by Nippon Koden K.K.) being further used).

isolated heart [4] = assay: Experiment 2-2 Activity onto the isolated heart (with duration); parameters: species or system Japanese white rabbit; conditions: for Coronary perfusion Duration: time until perfusion volume returned to initial level; for activation at 3 µg/heart / inhibition at 3 µg/heart / activation at 1 µg/heart / inhibition at 1 µg/heart: Oryctolagus cuniculus; for activation at 3 µg/heart / activation at 1 µg/heart: read-out: Coronary perfusion Increase
Description: Japanese white rabbit (weighing 2.2-2.5 kg) was anesthetized by introvenous injection of nembutal (20 mg/kg) and then sacrificed by bleeding from common carotid artery. […] There were measured the perfusion volume with a drop-counting meter (ET-600G type, manufactured by Nippon Koden K.K.) and the heart pulse and the contractility via a force-displacement transducer (FD pick up, SB-IT type, manufactured by Nippon Koden K.K.) (for measuring heart pulse, an instant pulse meter (AT-601G type, minufactured by Nippon Koden K.K.) being further used).
The test compounds were dissolved in ethanol, and the solution was diluted in 100-fold with purified water, and the diluted solution was administered in an amount of 0.1 ml/heart (i.e. 3 μg/heart).
The activity was measured in the same manner as described in Experiment 2-1 except that in some test compounds, the dose was in 1 μg/heart. Besides, the duration of the activity was evaluated by counting the time until the coronary perfusion volume became to the initial level before the administration of the test compound.

[5] = 3 μg/heart, read-out: Inhibitory rate of systole
[6] = 3 μg/heart, read-out: Reducing rate of heart pulse
[7] = 1 μg/heart, read-out: Inhibitory rate of systole
[8] = 1 μg/heart, read-out: Reducing rate of heart pulse

Structure (SMILES) | Recovering time [1] [h] | Time for recovering 1/2 of max. hypotension [1] [h] | Time until reaching to max. hypotension [1] [min] | Maximum hypotension [1] [mmHg] | Maximum hypotension ([2]; 1 mg/kg oral) [mmHg] | Recovering time ([2]; 1 mg/kg oral) [h] | Time for recovering 1/2 of max. hypotension ([2]; 1 mg/kg oral) [h] | Time until reaching to max. hypotension ([2]; 1 mg/kg oral) [min] | activation at 3 µg/heart (isolated heart [3]) [%] | inhibition at 3 µg/heart, 3 µg/heart (isolated heart [3]) [%] | inhibition at 3 µg/heart (isolated heart [3]) [%] | Coronary perfusion Duration (isolated heart [4]; 3 μg/heart) [min] | activation at 3 µg/heart (isolated heart [4]; 3 μg/heart) [%] | inhibition at 3 µg/heart (isolated heart [4]; [5]) [%] | inhibition at 3 µg/heart (isolated heart [4]; [6]) [%] | hypotensive activity (in words) [2] | Coronary perfusion Duration (isolated heart [4]; 1 μg/heart) [min] | activation at 1 µg/heart (isolated heart [4]; 1 μg/heart) [%] | inhibition at 1 µg/heart (isolated heart [4]; [7]) [%] | inhibition at 1 µg/heart (isolated heart [4]; [8]) [%] | other results
COC(=O)C1=C(C)NC(C)=C(C(=O)OC)C1c1ccccc1[N+](=O)[O-] [Compound A, dimethyl 1,4-dihydro-2,6-dimethyl-4-(2-nitophenyl)3,5-pyridinedicarboxylate, reference compound] | 4.0 | 1.5 | 15 | 49 | 55 | 3.0 to 4.0 | 2.0 | 30 | 40 | 35 | 10 | < 10 | 40 | 35 | 10 |  |  |  |  |  | EC50 (isolated aorta): 41 nM
COC(=O)C1=C(C)NC(C)=C(C(=O)OCCN(C)Cc2ccccc2)C1c1cccc([N+](=O)[O-])c1.Cl (centres unmarked) [Compound B, methyl, N-benzyl-N-methylaminoethyl 1,4-dihydro-2,6-dimethyl-4-(3-nitrophenyl)-3,5-pyridinedicarboxylate hydrochloride, reference compound] | > 5.0 | > 5.0 | 15 | 57 |  |  |  |  | 15 | 10 | 5 | < 10 | 15 | 10 | 5 |  |  |  |  |  | Maximum hypotension ([2]; 3 mg/kg oral): 27 mmHg; Recovering time ([2]; 3 mg/kg oral): 3.0 to 4.0 h; Time for recovering 1/2 of max. hypotension ([2]; 3 mg/kg oral): 2.0 h; Time until reaching to max. hypotension ([2]; 3 mg/kg oral): 30 min; EC50 (isolated aorta; 30 mM KCl contraction, maximum relaxation by papaverine = 100%): 19 nM
C#CCNC(=O)C1=C(C)NC(C)=C(C(=O)OCCCCCCCC)C1c1ccccc1[N+](=O)[O-] (centres unmarked) [Example 78, n-octyl 2,6-dimethyl-3-propargylaminocarbonyl-4-(o-nitrophenyl)-1,4-dihydropyridine-5-carboxylate] |  |  |  |  | 33 | 5.0 | 3.0 | 60 |  |  |  |  |  |  |  | the same or more potent hypotensive activity with longer duration | 60 | 55 | 35 | 10 | 
C#CCNC(=O)C1=C(C)NC(C)=C(C(=O)OCCCCCCCCC)C1c1ccccc1[N+](=O)[O-] (centres unmarked) [Example 79, n-nonyl 2,6-dimethyl-3-propargylaminocarbonyl-4-(o-nitrophenyl)-1,4-dihydropyridine-5-carboxylate] |  |  |  |  | 45 | 5.0 | 3.0 | 60 |  |  |  |  |  |  |  | the same or more potent hypotensive activity with longer duration | 60 | 50 | 40 | 30 | 
